# Several values for one entry are separate records, joined by “and”; a condition that tells them apart may be missing. Identical values can stand only once. Counter-ions that a name gives are not always drawn. Like-named read-outs stand apart in the source and are kept apart here.
# Test system: senescent IMR90 ER:RAS cells (4-OHT-induced)
# Assay: Nuclei count (Hoechst, high content imaging) senolytic assay, oncogene-induced senescence (OIS) model, senescent cells
# Assay type: cell-based, human
# In short: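 Cells seeded, left 24 h, then dosed across a 10-point […] series (10 μM down to 10 nM) with DMSO control. After 72 h, wells were fixed, permeabilised and stained with Hoechst. Nuclei were counted by high-content imaging in senescent and non-senescent IMR90 ER:RAS cultures.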
# [1] = Homo sapiens, IMR-90, 72 h, Senescent, log (dose) [M] -5, 72 h, mean n=3 (Fig 3C), read-out: Mean % Cell Survival
# [2] = Homo sapiens, IMR-90, 72 h, Senescent, log (dose) [M] -5.33, 72 h, mean n=3 (Fig 3C), read-out: Mean % Cell Survival
# [3] = Homo sapiens, IMR-90, 72 h, Senescent, log (dose) [M] -5.66, 72 h, mean n=3 (Fig 3C), read-out: Mean % Cell Survival
# [4] = Homo sapiens, IMR-90, 72 h, Senescent, log (dose) [M] -6, 72 h, mean n=3 (Fig 3C), read-out: Mean % Cell Survival
# [5] = Homo sapiens, IMR-90, 72 h, Senescent, log (dose) [M] -6.33, 72 h, mean n=3 (Fig 3C), read-out: Mean % Cell Survival
# [6] = Homo sapiens, IMR-90, 72 h, Senescent, log (dose) [M] -6.66, 72 h, mean n=3 (Fig 3C), read-out: Mean % Cell Survival
# [7] = Homo sapiens, IMR-90, 72 h, Senescent, log (dose) [M] -7, 72 h, mean n=3 (Fig 3C), read-out: Mean % Cell Survival
# [8] = Homo sapiens, IMR-90, 72 h, Senescent, log (dose) [M] -7.33, 72 h, mean n=3 (Fig 3C), read-out: Mean % Cell Survival
# [9] = Homo sapiens, IMR-90, 72 h, Senescent, log (dose) [M] -7.66, 72 h, mean n=3 (Fig 3C), read-out: Mean % Cell Survival
# [10] = Homo sapiens, IMR-90, 72 h, Senescent, log (dose) [M] -8, 72 h, mean n=3 (Fig 3C), read-out: Mean % Cell Survival
# [11] = Homo sapiens, IMR-90, Senescent cells, log (dose) [M] -5, individual replicates, SUP FIG 4C, read-out: % Cell Survival
# [12] = Homo sapiens, IMR-90, Senescent cells, log (dose) [M] -6.66, individual replicates, SUP FIG 4C, read-out: % Cell Survival
# [13] = Homo sapiens, IMR-90, Senescent cells, log (dose) [M] -7, individual replicates, SUP FIG 4C, read-out: % Cell Survival
# [14] = Homo sapiens, IMR-90, Senescent cells, log (dose) [M] -7.33, individual replicates, SUP FIG 4C, read-out: % Cell Survival
# [15] = Homo sapiens, IMR-90, Senescent cells, log (dose) [M] -7.66, individual replicates, SUP FIG 4C, read-out: % Cell Survival
# [16] = Homo sapiens, IMR-90, Senescent cells, log (dose) [M] -8, individual replicates, SUP FIG 4C, read-out: % Cell Survival
# [17] = Homo sapiens, IMR-90, Senescent cells, log (dose) [M] -6, individual replicates, SUP FIG 4C, read-out: % Cell Survival
compound,measurement,setting,value
"CO[C@H]1C[C@@H]2CC[C@@H](C)[C@@](O)(O2)C(=O)C(=O)N2CCCC[C@H]2C(=O)O[C@H]([C@H](C)C[C@@H]2CC[C@@H](O)[C@H](OC)C2)CC(=O)[C@H](C)/C=C(\C)[C@@H](O)[C@@H](OC)C(=O)[C@H](C)C[C@H](C)/C=C/C=C/C=C/1C [Rapamycin, rapamycin, reference compound]",viability at 10 µM,[1],98.4%
same,viability at 4.677 µM,[2],103%
same,viability at 2.188 µM,[3],114%
same,viability at 1 µM,[4],90.6%
same,viability at 0.4677 µM,[5],101%
same,viability at 0.2188 µM,[6],97.8%
same,viability at 0.1 µM,[7],92.6%
same,viability at 0.04677 µM,[8],105%
same,viability at 0.02188 µM,[9],93.9%
same,viability at 0.01 µM,[10],92%
same,viability at 10 µM,[11],94.1%
same,viability at 4.677 µM,"Homo sapiens, IMR-90, Senescent cells, log (dose) [M] -5.33, individual replicates, SUP FIG 4C, read-out: % Cell Survival",113%
same,viability at 0.2188 µM,[12],104%
same,viability at 0.1 µM,[13],95.9%
same,viability at 0.04677 µM,[14],107%
same,viability at 0.02188 µM,[15],102%
same,viability at 0.01 µM,[16],88.4%
"CO[C@H]1C[C@@H]2CC[C@@H](C)[C@@](O)(O2)C(=O)C(=O)N2CCCC[C@H]2C(=O)O[C@H]([C@H](C)C[C@@H]2CC[C@H](n3cnnn3)[C@H](OC)C2)CC(=O)[C@H](C)/C=C(\C)[C@@H](O)[C@@H](OC)C(=O)[C@H](C)C[C@H](C)/C=C/C=C/C=C/1C [Zotarolimus, zotarolimus, reference compound]",viability at 10 µM,[1],111%
same,viability at 4.677 µM,[2],115%
same,viability at 2.188 µM,[3],102%
same,viability at 1 µM,[4],113%
same,viability at 0.4677 µM,[5],95.4%
same,viability at 0.2188 µM,[6],95.9%
same,viability at 0.1 µM,[7],88.4%
same,viability at 0.04677 µM,[8],106%
same,viability at 0.02188 µM,[9],116%
same,viability at 0.01 µM,[10],104%
"COC[C@H]1C[C@@H](c2nc(-c3ccc4c(c3)COc3cc5c(ccc6nc([C@@H]7CC[C@H](C)N7C(=O)[C@@H](NC(=O)OC)C(C)C)[nH]c65)cc3-4)c[nH]2)N(C(=O)[C@H](NC(=O)OC)c2ccccc2)C1 [Velpatasvir, velpatasvir, reference compound]",viability at 10 µM,[1],97.8%
same,viability at 4.677 µM,[2],116%
same,viability at 2.188 µM,[3],102%
same,viability at 1 µM,[4],112%
same,viability at 0.4677 µM,[5],78.2%
same,viability at 0.2188 µM,[6],83.6%
same,viability at 0.1 µM,[7],88.6%
same,viability at 0.04677 µM,[8],91.5%
same,viability at 0.02188 µM,[9],108%
same,viability at 0.01 µM,[10],100%
same,viability at 10 µM,[11],100%
same,viability at 2.188 µM,"Homo sapiens, IMR-90, Senescent cells, log (dose) [M] -5.66, individual replicates, SUP FIG 4C, read-out: % Cell Survival",111%
same,viability at 1 µM,[17],108%
same,viability at 0.2188 µM,[12],90.3%
same,viability at 0.1 µM,[13],89%
same,viability at 0.04677 µM,[14],85.1%
same,viability at 0.02188 µM,[15],103%
same,viability at 0.01 µM,[16],94.1%
"Cc1c(NC(=O)OC[C@@H]2COCCN2)cn2ncnc(Nc3ccc4c(cnn4Cc4cccc(F)c4)c3)c12.Cl.Cl [BMS 599626 2HCL, BMS 599626 dihydrochloride]",% Cell Survival,"Senescent cells, log (dose) [M] -5, individual replicates, SUP FIG 4C",148.305% and 168.559% and 104.914%
same,% Cell Survival,"Senescent cells, log (dose) [M] -5.33, individual replicates, SUP FIG 4C",96.2712% and 179.476% and 125.714%
same,% Cell Survival,"Senescent cells, log (dose) [M] -5.66, individual replicates, SUP FIG 4C",153.051% and 117.467% and 95.5429%
same,% Cell Survival,"Senescent cells, log (dose) [M] -6, individual replicates, SUP FIG 4C",117.797% and 133.042% and 86.6286%
same,% Cell Survival,"Senescent cells, log (dose) [M] -6.33, individual replicates, SUP FIG 4C",137.458% and 98.5444% and 96.6857%
same,% Cell Survival,"Senescent cells, log (dose) [M] -6.66, individual replicates, SUP FIG 4C",136.441% and 92.5764% and 82.2857%
same,% Cell Survival,"Senescent cells, log (dose) [M] -7, individual replicates, SUP FIG 4C",136.102% and 95.3421% and 94.0571%
same,% Cell Survival,"Senescent cells, log (dose) [M] -7.33, individual replicates, SUP FIG 4C",122.034% and 101.601% and 79.4286%
same,% Cell Survival,"Senescent cells, log (dose) [M] -7.66, individual replicates, SUP FIG 4C",139.831% and 102.475% and 90.8571%
same,% Cell Survival,"Senescent cells, log (dose) [M] -8, individual replicates, SUP FIG 4C",151.017% and 98.69% and 92.6857%
same,Mean % Cell Survival,"Senescent, log (dose) [M] -5, 72 h, mean n=3 (Fig 3C)",140.593%
same,Mean % Cell Survival,"Senescent, log (dose) [M] -5.33, 72 h, mean n=3 (Fig 3C)",133.82%
same,Mean % Cell Survival,"Senescent, log (dose) [M] -5.66, 72 h, mean n=3 (Fig 3C)",122.02%
same,Mean % Cell Survival,"Senescent, log (dose) [M] -6, 72 h, mean n=3 (Fig 3C)",112.489%
same,Mean % Cell Survival,"Senescent, log (dose) [M] -6.33, 72 h, mean n=3 (Fig 3C)",110.896%
same,Mean % Cell Survival,"Senescent, log (dose) [M] -6.66, 72 h, mean n=3 (Fig 3C)",103.768%
same,Mean % Cell Survival,"Senescent, log (dose) [M] -7, 72 h, mean n=3 (Fig 3C)",108.5%
same,Mean % Cell Survival,"Senescent, log (dose) [M] -7.33, 72 h, mean n=3 (Fig 3C)",101.021%
same,Mean % Cell Survival,"Senescent, log (dose) [M] -7.66, 72 h, mean n=3 (Fig 3C)",111.054%
same,Mean % Cell Survival,"Senescent, log (dose) [M] -8, 72 h, mean n=3 (Fig 3C)",114.131%
same,% Cell Survival,"Senescent, log (dose) [M] -5",90.7857%
same,% Cell Survival,"Senescent, log (dose) [M] -5.33",83.9286%
same,% Cell Survival,"Senescent, log (dose) [M] -5.66",68.2857%
same,% Cell Survival,"Senescent, log (dose) [M] -6",92.9286%
same,% Cell Survival,"Senescent, log (dose) [M] -6.33",86.7857%
same,% Cell Survival,"Senescent, log (dose) [M] -6.66",103.929%
same,% Cell Survival,"Senescent, log (dose) [M] -7",113.571%
same,% Cell Survival,"Senescent, log (dose) [M] -7.33",119.214%
same,% Cell Survival,"Senescent, log (dose) [M] -7.66",109.286%
same,% Cell Survival,"Senescent, log (dose) [M] -8",117.714%
"CC[C@]1(O)C[C@@H]2CN(CCc3c([nH]c4ccccc34)[C@@](C(=O)OC)(c3cc4c(cc3OC)N(C)[C@H]3[C@@](O)(C(=O)OC)[C@H](OC(C)=O)[C@]5(CC)C=CCN6CC[C@]43[C@@H]65)C2)C1 [Vinblastine sulfate, vinblastine sulfate, reference compound]",viability at 10 µM,[1],54.4%
same,viability at 4.677 µM,[2],77.2%
same,viability at 2.188 µM,[3],58.1%
same,viability at 1 µM,[4],67.1%
same,viability at 0.4677 µM,[5],61.7%
same,viability at 0.2188 µM,[6],87%
same,viability at 0.1 µM,[7],73.9%
same,viability at 0.04677 µM,[8],108%
same,viability at 0.02188 µM,[9],59.7%
same,viability at 0.01 µM,[10],92.6%
same,viability at 1 µM,[17],70.9%
same,viability at 10 µM,"Homo sapiens, IMR-90, Senescent, log (dose) [M] -5, read-out: % Cell Survival",89.1%
same,viability at 4.677 µM,"Homo sapiens, IMR-90, Senescent, log (dose) [M] -5.33, read-out: % Cell Survival",88%
same,viability at 2.188 µM,"Homo sapiens, IMR-90, Senescent, log (dose) [M] -5.66, read-out: % Cell Survival",86.9%
same,viability at 1 µM,"Homo sapiens, IMR-90, Senescent, log (dose) [M] -6, read-out: % Cell Survival",68.2%
same,viability at 0.4677 µM,"Homo sapiens, IMR-90, Senescent, log (dose) [M] -6.33, read-out: % Cell Survival",96.2%
same,viability at 0.2188 µM,"Homo sapiens, IMR-90, Senescent, log (dose) [M] -6.66, read-out: % Cell Survival",103%
same,viability at 0.1 µM,"Homo sapiens, IMR-90, Senescent, log (dose) [M] -7, read-out: % Cell Survival",109%
same,viability at 0.04677 µM,"Homo sapiens, IMR-90, Senescent, log (dose) [M] -7.33, read-out: % Cell Survival",92.4%
same,viability at 0.02188 µM,"Homo sapiens, IMR-90, Senescent, log (dose) [M] -7.66, read-out: % Cell Survival",112%
same,viability at 0.01 µM,"Homo sapiens, IMR-90, Senescent, log (dose) [M] -8, read-out: % Cell Survival",114%
"COc1cc(O)c2c(=O)cc(-c3ccc(OC)c(-c4c(O)cc(O)c5c(=O)cc(-c6ccc(O)cc6)oc45)c3)oc2c1 [Ginkgetin, ginkgetin]",viability at 10 µM,[1],5.11%
same,viability at 4.677 µM,[2],9.69%
same,viability at 2.188 µM,[3],80%
same,viability at 1 µM,[4],93.5%
same,viability at 0.4677 µM,[5],108%
same,viability at 0.2188 µM,[6],95.6%
same,viability at 0.1 µM,[7],105%
same,viability at 0.04677 µM,[8],113%
same,viability at 0.02188 µM,[9],105%
same,viability at 0.01 µM,[10],110%
same,viability at 10 µM,"Homo sapiens, IMR-90, senescence, log (dose) [M] -5, individual replicates (Fig 3D), read-out: % Cell Survival",4.7%
same,viability at 2.188 µM,"Homo sapiens, IMR-90, senescence, log (dose) [M] -5.66, individual replicates (Fig 3D), read-out: % Cell Survival",71.2%
same,viability at 0.04677 µM,"Homo sapiens, IMR-90, senescence, log (dose) [M] -7.33, individual replicates (Fig 3D), read-out: % Cell Survival",116%
same,IC50,"Homo sapiens, IMR-90, OIS model, 4-OHT-induced IMR90 ER:RAS, nuclei count, 72 h",2.6 µM
same,dose showing the clearest senolytic effect,"OIS IMR90 ER:RAS, Hoechst nuclei count, marginal effect on normal cells",4.6 µM
same,senolytic activity (in words),"experimental screen, OIS IMR90 ER:RAS",clear senolytic action
